Data taken from PMC11859928, “Design, Synthesis, and Antiproliferative Activity of Novel Indole/1,2,4-Triazole Hybrids as Tubulin Polymerization Inhibitors” (Pharmaceuticals, 2025).

How the values were obtained:
[1] = tested on: HL-60(TB); assay: NCI five-dose assay; assay type: cell-based, human; conditions: Leukemia
[2] = tested on: MOLT-4; assay: NCI five-dose assay; assay type: cell-based, human; conditions: MOLT-4, Leukemia
[3] = tested on: NCI-H322M; assay: NCI five-dose assay; assay type: cell-based, human; conditions: Non-small cell lung cancer
[4] = tested on: NCI-H522; assay: NCI five-dose assay; assay type: cell-based, human; conditions: NCI-H522, Non-small cell lung cancer
[5] = tested on: HCC-2998; assay: NCI five-dose assay; assay type: cell-based, human; conditions: HCC-2998, Colon cancer
[6] = tested on: SF-268; assay: NCI five-dose assay; assay type: cell-based, human; conditions: Homo sapiens, SF-268, CNS cancer
[7] = tested on: SF-295; assay: NCI five-dose assay; assay type: cell-based, human; conditions: SF-295, CNS cancer
[8] = tested on: LOX IMVI; assay: NCI five-dose assay; assay type: cell-based, human; conditions: Melanoma
[9] = tested on: MALME-3M; assay: NCI five-dose assay; assay type: cell-based, human; conditions: Melanoma
[10] = tested on: SK-MEL-2; assay: NCI five-dose assay; assay type: cell-based, human; conditions: SK-MEL-2, Melanoma
[11] = tested on: TK-10; assay: NCI five-dose assay; assay type: cell-based, human; conditions: TK-10, Renal cancer
[12] = tested on: MDA/MB-231-ATCC; assay: NCI five-dose assay; assay type: cell-based, human; conditions: Breast cancer
[13] = tested on: Non-small cell lung cancer subpanel; assay: NCI five-dose assay, subpanel mean; assay type: cell-based, human
[14] = tested on: MDA-MB 231 breast cancer cells; assay: Cell cycle analysis; assay type: cell-based; conditions: MDA-MB 231, 24 h, IC50 concentration of 7i
Method: The impact of compound 7i on cell cycle progression was investigated in MDA-MB 231 breast cancer cells. […] The cell line was handled with PI/Annexin V, and flow cytometry was utilizing a BD FACS Caliber. […] This indicates a cell cycle arrest at the G1 phase transition.
(§1) The MDA-MB231 breast cancer cell line was used for cell cycle study and apoptosis detection. The assay was performed as previously documented (Appendix A).

[15] = tested on: MDA-MB 231 cell; assay: Apoptosis induction assay (Annexin V/PI); assay type: cell-based; conditions: MDA-MB 231, 24 h
Method: The MDA-MB 231 cell was labeled with Annexin V/PI, cultured for 24 h, and examined to assess the capacity of 7i to induce apoptosis.
as §1

[16] = Homo sapiens, 48 h, read-out: LC50 (the source's name)
[17] = Homo sapiens, read-out: GI50 Conc. per Cell Lines

In the case of `O/N=C(\CSc1nnc(-c2c[nH]c3ccccc23)n1-c1ccccc1)c1ccc(Br)cc1` [Compound 7i, (Z)-2-((5-(1H-Indol-3-yl)-4-phenyl-4H-1,2,4-triazol-3-yl)thio)-1-(4-bromophenyl) Ethanone Oxime], the CC50 [1, 16] is reported as > 100 µM, the GI50 [1, 17] is reported as 1.92 µM and the “TGI Conc. per Cell Lines” value [1] is reported as 4.55 µM. For the same compound, the CC50 [2, 16] was > 100 µM, the GI50 [2, 17] was 2.09 µM and the “TGI Conc. per Cell Lines” value [2] was 4.80 µM. The CC50 [3, 16] was 93.3 µM, the GI50 [3, 17] was 4.8 µM and the “TGI Conc. per Cell Lines” value [3] was 24.20 µM. The CC50 [4, 16] was 61.6 µM, the GI50 [4, 17] was 2.52 µM and the “TGI Conc. per Cell Lines” value [4] was 7.70 µM. The “TGI Conc. per Cell Lines” value [5] was 12.30 µM, the CC50 [5, 16] was 35.8 µM and the GI50 [5, 17] was 3.36 µM. For the same compound, the CC50 ([6]; 48 h, read-out: LC50 (the source's name)) was > 100 µM, the GI50 ([6]; read-out: GI50 Conc. per Cell Lines) was 2.37 µM and the CC50 [7, 16] was 13.6 µM. The GI50 [7, 17] was 1.93 µM, the “TGI Conc. per Cell Lines” value [7] was 4.70 µM and the CC50 [8, 16] was 5.69 µM. For the same compound, the GI50 [8, 17] was 1.71 µM, the “TGI Conc. per Cell Lines” value [8] was 3.12 µM and the CC50 [9, 16] was 87 µM. The GI50 [9, 17] was 3.22 µM, the “TGI Conc. per Cell Lines” value [9] was 14.30 µM and the CC50 [10, 16] was 37.5 µM. The GI50 [10, 17] was 3.1 µM, the “TGI Conc. per Cell Lines” value [10] was 10.4 µM and the CC50 [11, 16] was 30.4 µM. For the same compound, the GI50 [11, 17] was 2.8 µM, the “TGI Conc. per Cell Lines” value [11] was 7.63 µM and the “TGI Conc. per Cell Lines” value [12] was 3.26 µM. For the same compound, the LC50 ([12]; Homo sapiens, 48 h) was 6.21 µM, the GI50 [12, 17] was 1.71 µM and the GI50 ([13]; Homo sapiens, average sensitivity of all cell lines of the Non-small cell lung cancer subpanel, read-out: GI50 Subpanel MID b) was 3.23 µM. The “GI50 Selectivity Ratio (MID a/MID b)” value ([13]; Non-small cell lung cancer subpanel) was 0.87, the “cells in G0/G1 phase (%DIP G1)” value [14] was 83% and the “necrosis percentage (PI/Annexin upper left quadrant)” value [15] was 3.88%.
